In US20100331310A1, “BICYCLOAMINE DERIVATIVES” (priority 2008, published 2010):
Where a name gives a salt, the structure may show the parent alone.

Tests used:
ectopic firing = details: as described in Patent document 1; cited from earlier work
[1] = tested on: sodium channels in cultured rat hippocampus; details: cited from earlier work
human Nav1.8 = target: T1, human Nav1.8 (Homo sapiens, UniProt Q9Y5Y9); test: Membrane potential increase-inhibitory action on TTX-resistant Na channels in cells expressing human Nav1.8 gene (deltamethrin stimulation); type: cell-based
T1 construct: expressed in transfected cells
Procedure: A cell line expressing human Nav1.8 gene was used to evaluate the pharmacological effects of compounds of the invention.
1. A membrane potential-sensitive dye containing TTX (final concentration: 0.25 μM) was added to cells expressing human Nav1.8, prior to incubation at 37° C. for 30-60 minutes. 2. The test compound was added to the cells, and the mixture was stationed for 15-30 minutes at room temperature while shielded from light. 3. Deltamethrin (final concentration: 50 μM), a Nav1.8 channel stimulant, was added, and the change in fluorescence intensity due to increased membrane potential was measured.
The Nav1.8 channel inhibition of the test compound was determined by the following equation.

[2] = tested on: rats that exhibited ectopic firing (left saphenous nerve); test: Suppression of ectopic firing in rats with cut saphenous nerve; type: in vivo; details: rat, urethane anesthesia, administration via catheter in right cervical vein; number of firings every 10 seconds; read-out: Suppressing activity on ectopic firing, ED50
Procedure: (1) The suppressing effect on ectopic firing was evaluated by the following method, with reference to Burchiel, K J., Exp. Neurol., 102, 249-253 (1988). […] The left saphenous nerve was exposed under urethane anesthesia (1 g/kg body weight), and an area approximately 1 cm adjacent to the cutting site was removed from the surrounding tissue. A catheter was inserted into the right cervical vein for administration of the compound. (3) The removed nerve was placed on a platinum hook electrode and covered with liquid paraffin to avoid drying of the nerve. The electrode was connected to a microelectrode amp, and the change in potential was recorded on a computer from an oscilloscope, via an A/D converter. The recorded nerve firing was evaluated based on the number of firings every 10 seconds, using analysis software (AcqKnowledge).

T1 sequence (Q9Y5Y9 whole entry): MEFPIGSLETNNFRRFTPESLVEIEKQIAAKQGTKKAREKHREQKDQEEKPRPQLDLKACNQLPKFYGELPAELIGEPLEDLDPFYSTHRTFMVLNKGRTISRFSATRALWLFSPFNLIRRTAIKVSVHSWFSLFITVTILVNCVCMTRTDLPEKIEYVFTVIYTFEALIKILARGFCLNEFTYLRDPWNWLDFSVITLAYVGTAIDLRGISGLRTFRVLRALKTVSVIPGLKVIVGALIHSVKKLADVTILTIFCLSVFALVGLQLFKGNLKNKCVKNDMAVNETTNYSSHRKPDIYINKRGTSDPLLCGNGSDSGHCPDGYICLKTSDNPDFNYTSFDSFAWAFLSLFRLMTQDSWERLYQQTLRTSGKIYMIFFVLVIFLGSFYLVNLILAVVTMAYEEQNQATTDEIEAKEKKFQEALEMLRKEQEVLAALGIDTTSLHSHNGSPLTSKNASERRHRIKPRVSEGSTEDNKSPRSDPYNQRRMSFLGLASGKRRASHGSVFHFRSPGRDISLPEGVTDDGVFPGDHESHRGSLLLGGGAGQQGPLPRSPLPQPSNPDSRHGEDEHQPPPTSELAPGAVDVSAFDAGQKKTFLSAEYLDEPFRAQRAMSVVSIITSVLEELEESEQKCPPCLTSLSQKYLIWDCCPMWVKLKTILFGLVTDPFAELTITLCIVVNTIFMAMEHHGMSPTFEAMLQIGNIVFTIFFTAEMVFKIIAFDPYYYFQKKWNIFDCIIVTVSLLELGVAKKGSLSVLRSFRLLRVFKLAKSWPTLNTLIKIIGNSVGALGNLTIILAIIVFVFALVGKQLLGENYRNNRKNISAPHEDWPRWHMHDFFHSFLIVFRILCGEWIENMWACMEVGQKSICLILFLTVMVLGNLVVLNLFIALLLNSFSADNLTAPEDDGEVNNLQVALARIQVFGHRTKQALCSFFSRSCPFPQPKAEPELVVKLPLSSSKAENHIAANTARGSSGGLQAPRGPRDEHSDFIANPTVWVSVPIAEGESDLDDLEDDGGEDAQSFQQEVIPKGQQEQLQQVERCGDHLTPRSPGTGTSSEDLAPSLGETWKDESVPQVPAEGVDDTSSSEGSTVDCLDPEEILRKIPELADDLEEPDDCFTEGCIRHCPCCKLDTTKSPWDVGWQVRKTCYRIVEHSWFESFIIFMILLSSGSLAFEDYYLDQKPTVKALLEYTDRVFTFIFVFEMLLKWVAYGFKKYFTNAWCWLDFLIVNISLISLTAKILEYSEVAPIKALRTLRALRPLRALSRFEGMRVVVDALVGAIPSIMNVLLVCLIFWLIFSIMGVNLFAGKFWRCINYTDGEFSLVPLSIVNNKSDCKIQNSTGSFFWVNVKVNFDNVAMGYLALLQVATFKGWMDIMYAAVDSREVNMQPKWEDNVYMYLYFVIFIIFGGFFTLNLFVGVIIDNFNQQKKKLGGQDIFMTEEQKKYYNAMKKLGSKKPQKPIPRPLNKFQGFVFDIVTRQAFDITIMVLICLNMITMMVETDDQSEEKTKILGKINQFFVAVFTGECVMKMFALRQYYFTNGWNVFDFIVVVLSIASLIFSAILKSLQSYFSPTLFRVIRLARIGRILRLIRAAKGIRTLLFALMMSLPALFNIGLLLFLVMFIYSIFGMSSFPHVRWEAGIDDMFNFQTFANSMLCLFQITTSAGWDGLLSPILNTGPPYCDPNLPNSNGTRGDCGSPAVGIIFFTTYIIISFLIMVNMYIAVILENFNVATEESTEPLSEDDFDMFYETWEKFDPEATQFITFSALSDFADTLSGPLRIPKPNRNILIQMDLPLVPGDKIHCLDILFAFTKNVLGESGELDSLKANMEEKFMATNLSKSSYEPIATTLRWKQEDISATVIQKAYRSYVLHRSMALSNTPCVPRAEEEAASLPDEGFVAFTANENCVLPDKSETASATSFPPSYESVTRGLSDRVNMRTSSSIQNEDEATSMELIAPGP

Structure (SMILES)	IC50 (human Nav1.8) [µM]	ED50 [2] [mg/kg]	also measured
O=c1[nH]cccc1CN1CC2CCCC(C1)C2/C=C/c1ccccc1F (stereo not shown)	–	–	Inhibitory activity against ectopic firing (ectopic firing): inadequate; Inhibitory activity against sodium channels [1]: has an inhibitory activity
Cc1nn(C[C@H](F)CN2C3CCC2CC(OCc2cccc(F)c2)C3)c(=O)n1C (stereo partly drawn) [Example 1, (Endo)-2-{(R)-2-fluoro-3-[3-(3-fluorobenzyloxy)-8-azabicyclo[3.2.1]oct-8-yl]propyl}-4,5-dimethyl-2,4-dihydro[1,2,4]triazol-3-one]	3.2	0.14	–
Cc1nn(C[C@H](F)CN2[C@@H]3CC[C@H]2C[C@@H](OCc2ccccc2F)C3)c(=O)n1C [Example 4, (Endo)-2-{(R)-2-fluoro-3-[3-(2-fluorobenzyloxy)-8-azabicyclo[3.2.1]oct-8-yl]propyl}-4,5-dimethyl-2,4-dihydro[1,2,4]triazol-3-one]	5	0.23	–
Cc1nn(C[C@H](F)CN2C3CCC2CC(OCc2ccccc2CF)C3)c(=O)n1C (stereo partly drawn) [Example 6, (Endo)-2-{(R)-2-fluoro-3-[3-(2-fluoromethylbenzyloxy)-8-azabicyclo[3.2.1]oct-8-yl]propyl}-4,5-dimethyl-2,4-dihydro[1,2,4]triazol-3-one]	5.2	0.27	–
Cc1nc(=O)n(C[C@@H](F)CN2C3CCC2CC(OCc2ccc(F)cc2)C3)c(=O)n1C (stereo partly drawn) [Example 12, (Endo)-3-{(S)-2-fluoro-3-[3-(4-fluorobenzyloxy)-8-azabicyclo[3.2.1]oct-8-yl]propyl}-1,6-dimethyl-1H-[1,3,5]triazine-2,4-dione oxalate]	8.7	0.28	–
Cc1cccc(COC2CC3CCC(C2)N3CC(F)Cn2nc(N(C)C)n(C)c2=O)c1 (stereo not drawn) [Example 25, (Endo)-5-dimethylamino-2-{2-fluoro-3-[3-(3-methylbenzyloxy)-8-azabicyclo[3.2.1]oct-8-yl]propyl}-4-methyl-2,4-dihydro[1,2,4]triazol-3-one]	0.71	< 0.1	–
Cc1cc(-n2c(C)nn(CC(O)CN3[C@@H]4CC[C@H]3C[C@@H](OCc3ccccc3F)C4)c2=O)on1 (stereo partly drawn) [Example 47, (Endo)-2-{3-[3-(2-fluorobenzyloxy)-8-azabicyclo[3.2.1]oct-8-yl]-2-hydroxypropyl}-5-methyl-4-(3-methyl-isoxazol-5-yl)-2,4-dihydro[1,2,4]triazol-3-one oxalate]	1.3	0.18	–
O=c1n(-c2ccccc2)cnn1CCCN1[C@@H]2CC[C@H]1C[C@@H](OCc1ccccc1F)C2 [Example 58, (Endo)-2-{3-[3-(2-fluorobenzyloxy)-8-azabicyclo[3.2.1]oct-8-yl]propyl}-4-phenyl-2,4-dihydro[1,2,4]triazol-3-one]	0.13	0.18	–
CN1CCn2c1nn(CC(F)CN1[C@@H]3CC[C@H]1C[C@@H](OCc1ccc(F)cc1)C3)c2=O (stereo partly drawn) [Example 112, (Endo)-2-{2-fluoro-3-[3-(4-fluorobenzyloxy)-8-azabicyclo[3.2.1]oct-8-yl]propyl}-7-methyl-2,5,6,7-tetrahydroimidazo[2,1-c][1,2,4]triazol-3-one]	12	0.29	–
O=c1n(CCCN2[C@@H]3CC[C@H]2C[C@@H](OCc2ccccc2F)C3)nc2n1CCS2 [Example 116, (Endo)-2-{3-[3-(2-fluorobenzyloxy)-8-azabicyclo[3.2.1]oct-8-yl]propyl}-5,6-dihydro-2H-thiazolo[2,3-c][1,2,4]triazol-3-one]	5.8	0.15	–
O=c1nc2n(c(=O)n1CCCN1[C@@H]3CC[C@H]1C[C@@H](CCc1ccccc1F)C3)CCCC2 [Example 129, (Endo)-3-(3-{3-[2-(2-fluorophenyl)ethyl)-8-azabicyclo[3.2.1]oct-8-yl}propyl]-6,7,8,9-tetrahydropyrido[1,2-a][1,3,5]triazine-2,4-dione oxalate]	9.8	0.13	–
O=c1n(CCCN2[C@@H]3CC[C@H]2C[C@@H](OCc2ccccc2F)C3)nc2ccccn12 [Example 145, (Endo)-2-{3-[3-(2-fluorobenzyloxy)-8-azabicyclo[3.2.1]oct-8-yl]propyl}-2H-[1,2,4]triazolo[4,3-a]pyridin-3-one]	0.53	0.28	–
O=c1n(CCCN2[C@@H]3CC[C@H]2C[C@@H](CCc2ccccc2F)C3)nc2ccccn12 [Example 149, (Endo)-2-(3-{3-[2-(2-fluorophenyl)ethyl)-8-azabicyclo[3.2.1]oct-8-yl}propyl]-2H-[1,2,4]triazolo[4,3-a]pyridin-3-one]	0.28	0.15	–
COC(CN1[C@@H]2CC[C@H]1C[C@@H](OCc1ccccc1F)C2)Cn1nc2ccccn2c1=O (stereo partly drawn) [Example 157, (Endo)-2-{3-[3-(2-fluorobenzyloxy)-8-azabicyclo[3.2.1]oct-8-yl]-2-methoxypropyl}-2H-[1,2,4]triazolo[4,3-a]pyridin-3-one]	1.2	0.28	–
CCn1c(CCCN2[C@@H]3CC[C@H]2C[C@@H](OCc2ccccc2F)C3)nn(C)c1=O [Example 169, (Endo)-4-ethyl-5-{3-[3-(2-fluorobenzyloxy)-8-azabicyclo[3.2.1]oct-8-yl]propyl}-2-methyl-2,4-dihydro[1,2,4]triazol-3-one]	12	–	–
Cn1ccn2c(=O)n(CCCN3[C@@H]4CC[C@H]3C[C@@H](OCc3ccccc3F)C4)c(=O)nc12 [Example 174, (Endo)-3-{3-[3-(2-fluorobenzyloxy)-8-azabicyclo[3.2.1]oct-8-yl]propyl}-8-methyl-8H-imidazo[1,2-a][1,3,5]triazine-2,4-dione]	0.89	0.21	–
Cc1nc2ccccn2c(=O)c1CCN1[C@@H]2CC[C@H]1C[C@@H](OCc1ccccc1F)C2 [Example 179, (Endo)-3-{2-[3-(2-fluorobenzyloxy)-8-azabicyclo[3.2.1]oct-8-yl]ethyl}-2-methylpyrido[1,2-a]pyrimidin-4-one oxalate]	8.7	0.14	–
Cc1nc2c(c(=O)n1CCN1[C@@H]3CC[C@H]1C[C@@H](OCc1ccccc1F)C3)CCCC2 [Example 180, (Endo)-3-{2-[3-(2-fluorobenzyloxy)-8-azabicyclo[3.2.1]oct-8-yl]ethyl}-2-methyl-5,6,7,8-tetrahydro-3H-quinazolin-4-one oxalate]	4.8	–	–
Cn1c(=O)c2c(ncn2CCCN2[C@@H]3CC[C@H]2C[C@@H](OCc2ccccc2F)C3)n(C)c1=O [Example 182, (Endo)-7-{3-[3-(2-fluorobenzyloxy)-8-azabicyclo[3.2.1]oct-8-yl]propyl}-1,3-dimethyl-3,7-dihydro-purine-2,6-dione]	6.7	–	–
Cc1nc(C)n(C)c(=O)c1CCN1[C@@H]2CC[C@H]1C[C@@H](OCc1ccccc1F)C2 [Example 184, (Endo)-5-{2-[3-(2-fluorobenzyloxy)-8-azabicyclo[3.2.1]oct-8-yl]ethyl}-2,3,6-trimethyl-3H-pyrimidin-4-one oxalate]	7.6	0.19	–
Cc1c(C)n(C)c(=O)n(CCCN2[C@@H]3CC[C@H]2C[C@@H](OCc2ccccc2F)C3)c1=O [Example 189, (Endo)-3-{3-[3-(2-fluorobenzyloxy)-8-azabicyclo[3.2.1]oct-8-yl]propyl}-1,5,6-trimethyl-1H-pyrimidine-2,4-dione oxalate]	3.8	–	–
O=c1n(CC(O)CN2[C@@H]3CC[C@H]2C[C@@H](OCc2ccccc2F)C3)nnn1-c1ccccc1 (stereo partly drawn) [Example 190, (Endo)-1-{3-[3-(2-fluorobenzyloxy)-8-azabicyclo[3.2.1]oct-8-yl]-2-hydroxypropyl}-4-phenyl-1,4-dihydro-tetrazol-5-one]	0.03	–	–
CNCCCN1c2ccccc2CCc2ccccc21 [desipramine, reference compound]	–	–	Nav1.8 channel inhibition (human Nav1.8; 30 μM, reference for complete inhibition in the equation): completely inhibits
